Laboratory results reported in ChEMBL document CHEMBL5252619, “Sadopeptins A and B, Sulfoxide- and Piperidone-Containing Cyclic Heptapeptides with Proteasome Inhibitory Activity from a Streptomyces sp” (J Nat Prod, 2023).
Active and inactive are the calls of the source.

Key:
Proteasome [1] = test: Inhibition of proteasome caspase-like activity in human A549 cells assessed as increase in caspase-3 level at 25 to 100 uM measured for 12 hrs in presence of MG132; format: subcellular; conditions: dose 25-100 µM
Proteasome [2] = test: Inhibition of proteasome caspase-like activity in human A549 cells assessed as LC3 lipidation at 25 to 100 uM measured for 12 hrs in presence of MG132; conditions: dose 25-100 µM
Proteasome [3] = test: Inhibition of human proteasome chymotrypsin-like activity using suc-LLVY-AMC as fluorogenic substrate measured for 30 mins in presence of MG132 by fluorescence based assay; format: subcellular; conditions: dose 10-50 µM
Proteasome [4] = test: Inhibition of proteasome caspase-like activity in human A549 cells assessed as cleaved PARP level at 25 to 100 uM measured for 12 hrs in presence of MG132; conditions: dose 25-100 µM
Proteasome [5] = test: Inhibition of human proteasome trypsin-like activity using Boc-LRR-AMC as substrate measured for 30 mins in presence of MG132 by fluorescence based assay; format: subcellular; conditions: dose 10-50 µM
Proteasome [6] = test: Inhibition of proteasome caspase-like activity in human A549 cells at 25 uM using ZLLE-AMC as fluorogenic substrate preincubated for 15 mins followed by substrate addition and measured after 6 mins by fluorometer analysis; format: subcellular
A549 = test: Cytotoxicity against human A549 cells assessed as reduction in cell viability up to 200 uM measured for 9 hrs by WST-8 assay; format: functional, cell-based

CC(C)CC(=O)N[C@@H](CCCNC(N)=O)C(=O)N[C@@H]1C(=O)N[C@@H](CC[S+](C)[O-])C(=O)N[C@H]2CC[C@@H](O)N(C2=O)[C@@H](Cc2ccccc2)C(=O)N(C)[C@@H](Cc2ccc(O)cc2)C(=O)N[C@@H](C(C)C)C(=O)O[C@@H]1C (some centres undefined)
active: inhibition (Proteasome [1]) | inhibition (Proteasome [2]) | inhibition (Proteasome [3]) Dose-Dependent Effect | inhibition (Proteasome [4]) | inhibition (Proteasome [5]) Dose-Dependent Effect | inhibition (Proteasome [6]) | Activity (A549)

CCCC(=O)N[C@@H](CCCNC(N)=O)C(=O)N[C@@H]1C(=O)N[C@@H](CC[S+](C)[O-])C(=O)N[C@H]2CC[C@@H](O)N(C2=O)[C@@H](Cc2ccccc2)C(=O)N(C)[C@@H](Cc2ccc(O)cc2)C(=O)N[C@@H](C(C)C)C(=O)O[C@@H]1C (some centres undefined)
active: inhibition (Proteasome [1]) | inhibition (Proteasome [2]) | inhibition (Proteasome [3]) Dose-Dependent Effect | inhibition (Proteasome [4]) | inhibition (Proteasome [5]) Dose-Dependent Effect | inhibition (Proteasome [6]) | Activity (A549)
